The text below walks through data of EP4417190A1, “CYCLIC PEPTIDES WITH ANTI-AGING EFFICACY” (Lipotrue, S.L., priority 2023, dated 2024).

Common to all, as to type: cell-based, human
One data set concerns Collagen I (COL1). The experiment in a line: Collagen I immunostaining in HDF treated with conditioned media from peptide-treated keratinocytes. Particulars: 4 days of treatment with conditioned medium from peptide-treated keratinocytes (Figure 8). The method, then:
(§1) For TGFβ3 gene expression assessment, HEKa cells were seeded in 24-well plate at a density of […] and incubated at 37 °C in a humidified atmosphere with 5% CO2. Next day, cell culture media was replaced by fresh media containing 0.0025 or 0.01 mg/mL of cycled peptide B. In parallel, HDF cells were seeded on culture plates with or without coverslips (for immunofluorescence or qPCR, respectively) and incubated for 24 h.
(§2) Conditioned media from HEKa cells after 48 hours of treatment was then transferred to HDF culture plates. Cells were maintained in culture for additional 24h (for qPCR) or for 4 days (for collagen I immunostaining).
For the evaluation of collagen I (COLI) synthesis by immunostaining, HDF cells treated with HEKa conditioned media (as explained above) were washed twice with PBS, fixed with 4% formaldehyde and permeabilized with Triton X-100 0.2%. Next, samples were blocked for 1 hour with PBS/BSA 5%, in order to avoid nonspecific antibody binding. For collagen I staining, samples were incubated for 2 hours with Monoclonal Anti-Collagen, Type I antibody diluted 1:100 in PBS/BSA 1%, at room temperature. […] Images were analyzed using Image J software as mentioned above.

A further data set deals with MMP3 and MMP1. The experiment in a line: qPCR expression of metalloproteases in HDFa. Particulars: 24 hours, 0.01 mg/mL, compared with linear form (Figure 6C). The method, then:
HDFa cells were seeded in duplicate (n=2) in 12-well plates at a concentration of 200.000 cells/well in 106 Medium supplemented with 2% LSGS. Then, cells were incubated at 37 °C in a humidified atmosphere with 5% CO2. Next, cells were treated with cycled peptide B at different non-toxic concentrations for 6 or 24 hours. Untreated cells were used as basal control. Cells were then lysed, and replicates were pooled together for RNA extraction using Qiagen RNeasy Mini kit following manufacturer's instructions. Purified RNAs was then quantified by nanodrop, adjusted in concentration and processed for retrotranscription to cDNA using a commercially available kit (High-Capacity cDNA Reverse Transcription kit - Thermofisher Scientific, USA). Resulting cDNA was used to perform a RTqPCR using Taqman technology, and a panel of probes designed to target different type of collagens and their respective matrix metalloproteinases.
Metalloproteases (MMP) are enzymes responsible of extracellular matrix degradation, also important in skin aging. The expression of MMP genes in HDFa cells was measured by qPCR after 24 hours of treatment with 0.01 mg/mL of peptide B and its linear form.

The next data set concerns TGFβ3. The experiment in a line: qPCR TGFβ3 expression in HDF treated with conditioned media from peptide-treated keratinocytes. The method, then: as §1, §2
For qPCR, cells were lysed, RNA extracted, and gene expression for TGFβ3 target was obtained as indicated in the previous examples.
For orientation: Quantitative PCR measures a nucleic acid by following its amplification.

The next data set relates to calreticulin (CALR). The experiment in a line: Calreticulin immunofluorescence quantification in HEKa. The note with it: 0.005 mg/mL, 24 h. On the procedure: The effect of the cycled peptide on the expression of calreticulin (CALR) in human epidermal keratinocytes from adult (HEKa) was analyzed through fluorescence microscopy evaluation.
HEKa cells were cultured on coverslips in Dermal Cell Basal Medium (DCBM) at a density of 50.000 cell/well and incubated at 37 °C in a humidified atmosphere with 5% CO2. When cell confluence was around 80%, cells were treated with cycled peptide B at 0.005 mg/mL for 24 h. After treatment, samples were washed twice with PBS, fixed with 4% formaldehyde and permeabilized with Triton X-100 0.2%. Next, samples were blocked for 1 hour with PBS/BSA 5%, in order to avoid nonspecific antibody binding. […]
Images were analyzed using Image J software. Shortly, threshold was adjusted to select CALR staining and mean fluorescent was measured. The number of cells was counted using the DAPI staining. […] Finally, all data was normalized as follows to obtain the % of CALR compared to untreated cells (Basal): % vs Basal = (fluorescence per cell in treated samples)/(fluorescence per cell in untreated samples) × 100 [formula]
Statistical data analysis was performed using Student t-test by comparison of % fluorescence from peptide B treated samples vs. untreated samples, (*, p < 0.05; **, p < 0.01 and ***, p < 0.001).

Another data set concerns TGFBR3. The experiment in a line: RT-qPCR expression of aging-related gene TGFBR3 in HDFa. Particulars: 0.05 mg/mL, 6 h.

Procedure for TGFBR3: Then, cells were lysed, and RNA was extracted (RNeasy mini kit, Qiagen). Purified RNAs were retro-transcribed (High-capacity cDNA reverse transcription kit, Applied Biosystems). RT-qPCR was performed with the panel of TaqMan assay probes (Thermo Fisher Scientific) using StepOne plus Real time PCR instrument. […] The obtained data were analyzed using the ΔΔCt method, which provides the target gene expression values as fold changes in the treated sample compared with an untreated basal sample. Both samples were normalized with the relative expression of the housekeeping gene GAPDH.

On to `CC(C)C[C@@H]1NC(=O)[C@H](C)NC(=O)[C@H](Cc2c[nH]cn2)NC(=O)[C@H](Cc2c[nH]c3ccccc23)NC(=O)[C@H](Cc2ccccc2)NC(=O)[C@H](CCCNC(=N)N)NC1=O` [Peptide B, cyclo-Phe-Trp- His- Ala-Leu-Arg], for which the “Collagen I (COL1) levels” value in the data set with Collagen I (COL1) is “significantly increased”. Also, the “regulation of MMP3 and MMP1 expression” value in the data set on MMP3 and MMP1 is “reduces the expression of enzymes involved in collagen degradation”. The “expression of TGFβ3 over the basal expression in keratinocyte conditioned media (KCM)” value came to 1.35 fold in the data set with TGFβ3 (24 h with conditioned media from HEKa treated 48 hours with 0.0025 mg/mL) and 1.60 fold in the data set on TGFβ3 (24 h with conditioned media from HEKa treated 48 hours with 0.01 mg/mL). Besides, the “% Mean (CALR fluorescence per cell, % vs Basal)” value in the data set with calreticulin (CALR) is recorded as 179.45%. Moreover, the “increased CALR levels when compared with untreated cells” value in the data set with calreticulin (CALR) was “up to 79%”. Moreover, the “Fold change vs. Basal” value with TGFBR3 came to 1.74. For the same molecule, the Mean normalized expression in the data set with TGFBR3 (normalized to GAPDH) is on record as 8.00E-03.
